Results published in PMC7017409 (ACS Omega, 2020).

Target: T1, electric eel AChE (eeAChE) (Electrophorus electricus, UniProt O42275)
T1 construct: purchased type VI-S
Assay: biochemical
Format: biochemical
Method: A UV–vis spectrophotometry-based assay was conducted to calculate the IC50 values for the diastereomeric mixtures (Table 6), according to Ellman et al.[37] and Mohamed et al.[38]
All of these solutions were prepared freshly directly before the assay was run. In 96-well plates, 160 μL of the 1.5 mM DTNB solution was first added, followed by 10 μL of different concentrations of test compounds. Then, a 0.22 U/mL enzyme solution was added (50 μL) and incubated at room temperature for 7 min. The background absorbance was measured at a wavelength of 412 nm on a POLARstar OPTIMA (BMG Labtech) microplate reader. The addition of 30 μL of the 15 mM ATCI solution initiated the enzymatic reaction, and the time elapsed between the beginning of the pipetting and the first measurement (t = 0) was noted and kept consistently at 2 min. Further kinetic measurements were made at different time intervals (t = 1, 2, 3, 4, 5 min) after a short episode of shaking (10 s). Each experiment was carried out in triplicate. Various control incubations containing 10 μL of methanol were run alongside the test compounds on each plate.

T1 sequence (O42275 24-633): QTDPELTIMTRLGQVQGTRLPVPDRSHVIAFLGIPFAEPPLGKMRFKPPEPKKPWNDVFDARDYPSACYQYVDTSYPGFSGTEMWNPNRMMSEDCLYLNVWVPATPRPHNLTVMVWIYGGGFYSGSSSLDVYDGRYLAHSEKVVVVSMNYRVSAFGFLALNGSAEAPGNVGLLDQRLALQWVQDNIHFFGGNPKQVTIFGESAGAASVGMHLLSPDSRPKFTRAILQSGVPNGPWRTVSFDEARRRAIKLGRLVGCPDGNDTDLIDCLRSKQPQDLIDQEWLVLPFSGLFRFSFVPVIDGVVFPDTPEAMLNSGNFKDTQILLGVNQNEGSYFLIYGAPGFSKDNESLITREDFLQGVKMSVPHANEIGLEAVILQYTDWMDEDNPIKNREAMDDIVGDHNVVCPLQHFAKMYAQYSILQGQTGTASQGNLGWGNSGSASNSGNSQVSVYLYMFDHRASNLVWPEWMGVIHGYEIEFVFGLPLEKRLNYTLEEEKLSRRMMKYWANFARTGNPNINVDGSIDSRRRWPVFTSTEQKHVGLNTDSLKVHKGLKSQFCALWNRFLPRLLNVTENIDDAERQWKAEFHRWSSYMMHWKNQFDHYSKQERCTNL

## COc1cc2c(cc1OC)C(=O)C(C[C@@H]1CCN([C@@H](C)c3ccccc3)[C@H](C)C1)C2 (stereo partly drawn) [2R,4R-4+4’d, R-5,6-Dimethoxy-2-((2R,4R-2-methyl-1-(S-1-phenylethyl)piperidin-4-yl)-methyl)-2,3-dihydro-1H-inden-1-one (4d) and S-5,6-Dimethoxy-2-((2R,4R-2-methyl-1-(S-1-phenylethyl)piperidin-4-yl)-methyl)-2,3-dihydro-1H-inden-1-one (4′d)]
  IC50: 13.1 ± 0.47 µM

## COc1cc2c(cc1OC)C(=O)C(C[C@H]1CCN([C@@H](C)c3ccccc3)[C@H](C)C1)C2 (stereo partly drawn) [2R,4S-4+4’c, R-5,6-Dimethoxy-2-((2R,4S-2-methyl-1-(S-1-phenylethyl)piperidin-4-yl)-methyl)-2,3-dihydro-1H-inden-1-one (4c) and S-5,6-Dimethoxy-2-((2R,4S-2-methyl-1-(S-1-phenylethyl)piperidin-4-yl)-methyl)-2,3-dihydro-1H-inden-1-one (4′c)]
  IC50: 24.3 ± 1.32 µM

## COc1cc2c(cc1OC)C(=O)C(C[C@@H]1CCN([C@@H](C)c3ccccc3)[C@@H](C)C1)C2 (stereo partly drawn) [2S,4R-4+4’b, R-5,6-Dimethoxy-2-((2S,4R-2-methyl-1-(S-1-phenylethyl)piperidin-4-yl)-methyl)-2,3-dihydro-1H-inden-1-one (4b) and S-5,6-Dimethoxy-2-((2S,4R-2-methyl-1-(S-1-phenylethyl)piperidin-4-yl)-methyl)-2,3-dihydro-1H-inden-1-one (4′b)]
  IC50: 8.82 ± 0.21 µM

## COc1cc2c(cc1OC)C(=O)C(C[C@H]1CCN([C@@H](C)c3ccccc3)[C@@H](C)C1)C2 (stereo partly drawn) [2S,4S-4+4’a, R-5,6-Dimethoxy-2-((2S,4S-2-methyl-1-(S-1-phenylethyl)piperidin-4-yl)-methyl)-2,3-dihydro-1H-inden-1-one (4a) and y-5,6-Dimethoxy-2-((2S,4S-2-methyl-1-(S-1-phenylethyl)piperidin-4-yl)-methyl)-2,3-dihydro-1H-inden-1-one (4′a)]
  IC50: 1.01 ± 0.03 µM
eeAChE IC50, syn versus anti
  times more active than the 2R,4S-anti-substituted analogues 4 + 4′c (IC50 ratio): approximately 24 times

## COc1cc2c(cc1OC)C(=O)C(CC1CCN([C@@H](C)c3ccccc3)CC1)C2 (stereo partly shown) [19+19’, R-5,6-Dimethoxy-2-((1-(S-1-phenylethyl)piperidin-4-yl)methyl)-2,3-dihydro-1H-inden-1-one (19) and S-5,6-Dimethoxy-2-((1-(S-1-phenylethyl)piperidin-4-yl)methyl)-2,3-dihydro-1H-inden-1-one (19′)]
  IC50: 1.83 ± 0.04 µM
eeAChE IC50 compared with donepezil 1
  times less active than donepezil 1 (IC50 ratio): approximately 27 times
